Data published in ChEMBL document CHEMBL1201862, “PubChem BioAssay data set” (2004).
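How tested: cells in 96-well plates exposed to compound for 48 hours at five concentrations. GI50 marks 50% less growth.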 Activity calls are given as the source filed them. No stated cut-off is given here; in the data, active = GI50 up to about 1.1 µM and inactive = higher.

Legend:
Assay in all cases: DTP human tumour cell line panel, 48 h
SNB-75 = tested on: SNB-75
HCT-15 = tested on: HCT-15
RPMI-8226 = tested on: RPMI-8226
A498 = tested on: A498
786-0 = tested on: 786-0
SK-MEL-28 = tested on: SK-MEL-28
LOX IMVI = tested on: LOX IMVI
K562 = tested on: K562
PC-3 = tested on: PC-3
HL-60 = tested on: HL-60
ACHN = tested on: ACHN
NCI-H460 = tested on: NCI-H460
T47D = tested on: T47D
UACC-62 = tested on: UACC-62
DU-145 = tested on: DU-145
CCRF-CEM = tested on: CCRF-CEM
SK-MEL-2 = tested on: SK-MEL-2
SNB-19 = tested on: SNB-19
COLO 205 = tested on: COLO 205
OVCAR-3 = tested on: OVCAR-3

SMILES	GI50 (SNB-75)	GI50 (HCT-15) [µM]	GI50 (RPMI-8226)	GI50 (A498)	GI50 (786-0)	GI50 (SK-MEL-28)	GI50 (LOX IMVI)	GI50 (K562)	GI50 (PC-3)	GI50 (HL-60)	GI50 (ACHN)	GI50 (NCI-H460)	GI50 (T47D)	GI50 (UACC-62)	GI50 (DU-145)	GI50 (CCRF-CEM)	GI50 (SK-MEL-2)	GI50 (SNB-19)	GI50 (COLO 205)	GI50 (OVCAR-3)
CC(=O)c1c(SCCN2CCOCC2)n(-c2ccccc2)c(=S)n(-c2ccccc2)c1=O	22.3 µM (inactive)	19.5	8.38 µM (inactive)	11.5 µM (inactive)	11.5 µM (inactive)	20.9 µM (inactive)	8.39 µM (inactive)	14.1 µM (inactive)	17.3 µM (inactive)	28.5 µM (inactive)	14.8 µM (inactive)	24.4 µM (inactive)	17.6 µM (inactive)	15.5 µM (inactive)	8.99 µM (inactive)	10.8 µM (inactive)	20.2 µM (inactive)	> 40.9 µM (inactive)	21.5 µM (inactive)	14.8 µM (inactive)
CCOP(=O)(OCC)C(Nc1cccc(F)c1)c1ccc(N(C)C)cc1 (stereo not given)	> 100 µM (inactive)	78.2	67.6 µM (inactive)	> 100 µM (inactive)	> 10 µM (inactive)	> 100 µM (inactive)	70.5 µM (inactive)	49.1 µM (inactive)	62.1 µM (inactive)	45.7 µM (inactive)	> 100 µM (inactive)	63 µM (inactive)	34.8 µM (inactive)	50.4 µM (inactive)	> 100 µM (inactive)	90.4 µM (inactive)	> 100 µM (inactive)	> 100 µM (inactive)	97.1 µM (inactive)	> 100 µM (inactive)
Cc1cc2c(c(O)c1-c1c(C)cc(O)c3c1C(=O)C=CC3=O)C(=O)C=CC2=O	5.5 µM (inactive)	1.52	0.226 µM (active)	6.76 µM (inactive)	1.16 µM (inactive)	0.369 µM (active)	1.11 µM (active)	0.0337 µM (active)	4.02 µM (inactive)	< 0.01 µM (active)	0.388 µM (active)	6.43 µM (inactive)	1.34 µM (inactive)	2.13 µM (inactive)	2.19 µM (inactive)	< 0.01 µM (active)	10 µM (inactive)	18 µM (inactive)	0.279 µM (active)	2.08 µM (inactive)
CC(C)c1ccc(/C=C2/C=C(c3ccc4ccccc4c3)OC2=O)cc1	> 74.1 µM (inactive)	72.3	31.3 µM (inactive)	> 96.2 µM (inactive)	> 100 µM (inactive)	55.5 µM (inactive)	40.2 µM (inactive)	25.2 µM (inactive)	49 µM (inactive)	19.4 µM (inactive)	38.4 µM (inactive)	> 78.2 µM (inactive)	43 µM (inactive)	35.4 µM (inactive)	> 100 µM (inactive)	2.56 µM (inactive)	19.5 µM (inactive)	> 100 µM (inactive)	27.9 µM (inactive)	60 µM (inactive)
C/C(=N/NC(=S)N1CCCCCC1)c1cccc(/C(C)=N\NC(=S)N2CCCCCC2)n1	1.95 µM (inactive)	2.09	1.91 µM (inactive)	1.49 µM (inactive)	1.3 µM (inactive)	2.3 µM (inactive)	1.72 µM (inactive)	2.45 µM (inactive)	1.64 µM (inactive)	1.91 µM (inactive)	1.48 µM (inactive)	2.55 µM (inactive)	2.31 µM (inactive)	2.38 µM (inactive)	2.29 µM (inactive)	2.67 µM (inactive)	1.67 µM (inactive)	3.27 µM (inactive)	1.47 µM (inactive)	1.01 µM (active)
